In ChEMBL document CHEMBL2074343 (Pharm Res, 2004):

How the values were obtained:
Type in all cases: functional, cell-based
[1] = target: T1, ATP-dependent translocase ABCB1 (Homo sapiens, UniProt P08183); assay: TP_TRANSPORTER: transepithelial transport in L-MDR1 cells; settings: pig
[2] = target: T1, ATP-dependent translocase ABCB1; assay: TP_TRANSPORTER: transepithelial transport of vinblastine in the presence of Atrovastatin at 50uM in KBV1 cells; settings: kbv1, 50 µM
[3] = target: T1, ATP-dependent translocase ABCB1; assay: TP_TRANSPORTER: transepithelial transport of vinblastine in the presence of Simvastatin acid at 50uM in L-MDR1 cells; settings: pig, l-mdr1, 50 µM

T1 sequence (P08183 whole entry): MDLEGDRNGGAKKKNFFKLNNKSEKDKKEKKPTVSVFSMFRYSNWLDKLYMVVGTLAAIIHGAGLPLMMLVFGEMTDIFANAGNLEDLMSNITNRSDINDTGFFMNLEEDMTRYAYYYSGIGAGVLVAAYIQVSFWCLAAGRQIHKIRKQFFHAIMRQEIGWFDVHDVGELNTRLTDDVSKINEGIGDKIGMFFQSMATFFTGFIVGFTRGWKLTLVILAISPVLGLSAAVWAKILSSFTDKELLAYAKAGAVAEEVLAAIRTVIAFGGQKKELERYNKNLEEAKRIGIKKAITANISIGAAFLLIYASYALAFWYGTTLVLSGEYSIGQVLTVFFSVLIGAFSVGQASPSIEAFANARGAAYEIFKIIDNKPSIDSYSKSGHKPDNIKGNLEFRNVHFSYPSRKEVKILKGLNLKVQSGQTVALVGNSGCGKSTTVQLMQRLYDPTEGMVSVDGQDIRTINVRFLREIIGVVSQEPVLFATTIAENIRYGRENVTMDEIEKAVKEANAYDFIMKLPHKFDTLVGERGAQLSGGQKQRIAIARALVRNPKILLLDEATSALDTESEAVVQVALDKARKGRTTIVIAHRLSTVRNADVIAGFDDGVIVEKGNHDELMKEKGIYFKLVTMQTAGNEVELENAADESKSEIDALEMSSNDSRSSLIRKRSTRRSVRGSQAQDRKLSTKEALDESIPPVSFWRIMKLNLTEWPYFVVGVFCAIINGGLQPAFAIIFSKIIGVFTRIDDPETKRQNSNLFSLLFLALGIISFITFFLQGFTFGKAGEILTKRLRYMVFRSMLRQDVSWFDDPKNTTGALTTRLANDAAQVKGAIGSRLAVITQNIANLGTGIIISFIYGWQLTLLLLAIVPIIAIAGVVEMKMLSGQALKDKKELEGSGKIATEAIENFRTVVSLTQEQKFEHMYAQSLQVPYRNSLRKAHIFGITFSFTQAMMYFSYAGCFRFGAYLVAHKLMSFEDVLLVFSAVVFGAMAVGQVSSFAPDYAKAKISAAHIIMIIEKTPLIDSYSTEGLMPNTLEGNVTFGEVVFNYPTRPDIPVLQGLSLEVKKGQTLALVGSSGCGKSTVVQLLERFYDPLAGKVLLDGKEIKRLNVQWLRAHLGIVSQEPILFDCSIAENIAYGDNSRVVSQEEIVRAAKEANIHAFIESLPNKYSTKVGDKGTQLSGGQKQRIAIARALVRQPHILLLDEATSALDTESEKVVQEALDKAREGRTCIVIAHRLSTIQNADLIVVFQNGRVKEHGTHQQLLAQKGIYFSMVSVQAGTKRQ

CC(C)c1c(C(=O)Nc2ccccc2)c(-c2ccccc2)c(-c2ccc(F)cc2)n1CC[C@@H](O)C[C@@H](O)CC(=O)O [ATORVASTATIN]
Activity [1]: substrate [+] | Activity [2]: is not an inhibitor [-]

CCC(C)(C)C(=O)O[C@H]1C[C@@H](C)C=C2C=C[C@H](C)[C@H](CC[C@@H](O)C[C@@H](O)CC(=O)O)[C@H]21 [TENIVASTATIN]
Activity [1]: substrate [+] | Activity [3]: is not an inhibitor [-]
